Laboratory results published in patent US10774084B2, “Adenine derivatives and their use as UV-photoprotective agents” (UNIVERZITA PALACKEHO V OLOMOUCI, priority 2015, dated 2020).

Assays:
[1] = test system: skin fibroblasts BJ and keratinocytes HaCaT; assay: MTT in vitro cytotoxicity test for skin cells; assay type: cell-based; details: Homo sapiens; 72 hour treatment; table does not say which cell line (BJ, HaCaT)
Protocol: MTT assay is a standard test of toxicity based on photometric measurement of the ability of metabolically active cells to reduce MTT (3-(4,5-dimethylthiazol-2-yl)-2,5-diphenyltetrazolium bromide). Using the assay, the effects of 72 hour treatments with several concentrations of the compounds (sixfold dilution, maximal concentration=50 microM) on viability of skin fibroblasts BJ and keratinocytes HaCaT were evaluated. About 5,000 cells were seeded per well of a 96-well plate 24 hours before the treatment. DMSO vehiculum was used as a negative control. After 72 hour treatment, new medium with MTT (Sigma, M2128) was added to a final concentration of 0.5 mg/ml. After 3 hours, medium was removed and resulting formazan in the cells was dissolved in DMSO. The absorbance was measured at 570 nm (640 nm reference wavelength). The IC50 values were calculated from the dose-response curves. 6-furfurylaminopurine riboside was used as positive controls.

[2] = test system: Triticum aestivum cv. Hereward leaf segments; assay: Senescence bioassay on detached wheat leaf segments (chlorophyll retention); details: for maximum effective concentration: 96 h in the dark; for activity (%) [10^−4 mol · l^−1 BAP = 100%]: at maximum effective concentration
Protocol: Seeds of winter wheat, Triticum aestivum cv. Hereward, were washed under running water for 24 hours and then sown on vermiculite soaked with Knop's solution. They were placed in the growth chamber at 25° C. with a 16/8 h light period at […]. After 7 days, the first leaf was fully developed and the second leaf had started to grow. A tip section of the first leaf, approximately 35 mm long, was removed from 5 seedlings and trimmed slightly to a combined weight of 100 mg. The basal ends of the five leaf tips were placed in the wells of a microtiter polystyrene plate containing 150 μL of the tested derivative solution each. The entire plate was inserted into a plastic box lined with paper tissues soaked in distilled water to prevent leaf sections from drying out. After 96 h incubation in the dark at 25° C., the leaves were removed and chlorophyll extracted by heating at 80° C. for 10 min in 5 mL of 80% ethanol (v/v). The sample volume was then restored to 5 mL by the addition of 80% ethanol (v/v). The absorbance of the extract was recorded at 665 nm. In addition, chlorophyll extracts from fresh leaves and leaf tips incubated in deionised water were measured. The results are means of five replicates and the entire test was repeated twice. […] The compounds to be tested were dissolved in dimethylsulfoxide (DMSO) and the solution brought up to 10^−3 M with distilled water. […] The activity obtained for 10^−4 M of BAP was postulated as 100%. Kinetin was used as the second standard. Newly prepared compounds generally exceeded the efficiency of standard (BAP) by 10% of its activity (Tab. 5).

[3] = test system: Normal human dermal fibroblasts (NHDF); assay: In vitro UVA/UVB photoprotection test on NHDF (Example 9); assay type: cell-based
Source text: Normal human dermal fibroblasts (NHDF) were used as an in vitro model. Cells were isolated from tissue specimens obtained from healthy patients undergoing plastic surgery at the Department of Plastic and Aesthetic Surgery (University Hospital Olomouc). The use of skin tissue was in accordance with the Ethics Committee of the University Hospital and Faculty of Medicine and Dentistry, Palacky University, Olomouc and all patients signed written informed consent. Fibroblasts were used between the 2nd and 4th passage. For all experiments the fibroblasts were seeded onto 96-well plates at a density of 0.8×10^5 cells/ml (0.2 ml per well) of cultivation medium (DMEM supplemented with fetal calf serum (10%, v/v), penicillin ([…]) and streptomycin (100 U/ml)). Test substances included compounds number 1, 3, 9, 15 and 20. Compounds were dissolved in DMSO and then diluted in serum free medium (DMEM supplemented with penicillin ([…]) and streptomycin (100 U/ml)). After 24 h incubation was cultivation medium changed to serum free medium containing test compound or DMSO (negative control). The final applied concentrations range was 3.9-31.3 μmol/ll. As a control serum free medium supplemented with appropriate concentration of DMSO (0.5%, v/v) was used. Rosmarinic acid was used as positive control. Each test compound was in parallel applied on two 96-well plates with NHDF. After 60 minutes incubation medium with test compound was discarded, cells were washed two-times with PBS and PBS supplemented with glucose (1 mg/ml) was applied. To study UVA photoprotection, a plate was exposed to a cytotoxic dose of UVA radiation (7.5 J/cm^2) using a solar simulator SOL 500 (Dr. Hoenle Technology, Germany) equipped with a H1 filter transmitting wavelengths of 320-400 nm. To study UVB photoprotection, a plate was exposed to a cytotoxic dose of UVB radiation (150 mJ/cm^2) using the solar simulator equipped with a H2 filter transmitting wavelengths of 295-320 nm. Intensity of UVA or UVB radiation was evaluated before each irradiation by UVA- or UVB-meter. Control (non-irradiated) plates were for the period of irradiation incubated in dark. After UVA or UVB exposure PBS with glucose was discarded and serum free medium was applied. After 24 hours (37° C., 5% CO2) cell damage was evaluated by neutral red (NR) incorporation into viable cells. Medium was discarded and NR solution (0.03% w/v, PBS) was applied. After 60 minutes NR solution was discarded, cells were fixed with a mixture of formaldehyde (0.5%, v/v) and CaCl2 (1%, m/v) in ratio 1:1 and then NR was dissolved in methanol (50%, v/v) with acetic acid (1%, v/v). After 5 minutes of intensive shaking absorbance was measured at 540 nm. Experiments were performed in four independent repetitions with use of cells from four donors to minimize individual sensitivity of donor cells. Photoprotective effect was evaluated by comparison of experimental data (absorbance) of test compounds with a positive control and a negative control (according to the following equation:
[formula] • As . . . absorbance of sample (cells pre-incubated with test compounds in serum free medium and irradiated) • Anc . . . absorbance of negative control (cells pre-incubated with s DMSO in serum free medium and non-irradiated=incubated in dark) • Apc . . . absorbance of positive control (cells pre-incubated with s DMSO in serum free medium and irradiated)

HaCaT = assay: In vitro UVA/UVB photoprotection test on HaCaT; assay type: cell-based, human
Protocol: Spontaneously Immortalized Aneuploid Human Keratinocyte Cell Line (HaCaT) was bought from CLS (Eppeheim, Germany) and used as an in vitro model. For all experiments the keratinocytes were seeded onto 96-well plates at a density of 1.6×10^5 cells/ml (0.2 ml per well) of growth medium (DMEM supplemented with fetal bovine serum (10%), penicillin ([…]) and streptomycin (100 U/ml)).
Test substances included compounds number 3, 9, 15 and 20. Compounds were dissolved in DMSO and then diluted in serum free medium (DMEM supplemented penicillin ([…]) and streptomycin (100 U/ml)). After 24 h incubation was growth medium changed to serum free medium containing test compounds. The final applied concentration range was 3.9-31.25 μmol/l. As a control, serum free medium supplemented with appropriate concentration of DMSO (0.5%, v/v) was used. Rosmarinic acid was used as positive control. After 60 minutes incubation with test compounds medium was discarded, cells were washed two-times with PBS and PBS supplemented with glucose (1 mg/ml) was applied. To study UVA photoprotection, a plate was exposed to a cytotoxic dose of UVA radiation (10 J/cm2) using a solar simulator SOL 500 (Dr. Hoenle Technology, Germany) equipped with a H1 filter transmitting wavelengths of 320-400 nm. To study UVB photoprotection, a plate was exposed to a cytotoxic dose of UVB radiation (150 mJ/cm2) using the solar simulator equipped with a H2 filter transmitting wavelengths of 295-320 nm. Intensity of UVA or UVB radiation was evaluated before each irradiation by UVA- or UVB-meter. Control (non-irradiated) plates were for the period of irradiation incubated in dark. After UVA or UVB exposure PBS with glucose was discarded and serum free medium was applied. After 24 hours (37° C., 5% CO2) cell damage was evaluated by neutral red (NR) incorporation into viable cells. Medium was discarded and NR solution (0.03% w/v, PBS) was applied. After 60 minutes NR solution was discarded, cells were fixed with a mixture of formaldehyde (0.5%, v/v) and CaCl2 (1%, m/v) in ratio 1:1 and then NR was dissolved in methanol (50%, v/v) with acetic acid (1%, v/v).
After 5 minutes of intensive shaking absorbance was measured at 540 nm. Experiments were performed in four independent repetitions with use of […] to minimize individual sensitivity of donor cells. Photoprotective effect was evaluated by comparison of experimental data (absorbance) of test compounds with a positive control and a negative control (according to the following equation: […]
As . . . absorbance of sample (cells pre-incubated with test compounds in serum free medium and irradiated)
Anc . . . absorbance of negative control (cells pre-incubated with s DMSO in serum free medium and non-irradiated=incubated in dark)
Apc . . . absorbance of positive control (cells pre-incubated with s DMSO in serum free medium and irradiated)

Q: Which IC50 [1] does the source give for `OC[C@H]1OC(n2cnc3c(NCc4ccco4)ncnc32)[C@H](O)[C@@H]1O` (some centres unmarked) [6-furfurylamino-9-ribosylpurine, reference compound] here?
A: ≤ 3 µM

Q: Which maximum effective concentration [2] does the source give for `c1ccc(CNc2ncnc3nc[nH]c23)cc1` [BAP, 6-benzylaminopurine, reference compound] here?
A: 10^−4 mol · l^−1

Q: What about the “activity (%) [10^−4 mol · l^−1 BAP = 100%]” value (“activity (%)” for short) [2] of the same compound?
A: 100 ± 1%

Q: With `Cc1ccsc1CNc1ncnc2c1ncn2C1CCCO1` (centres unmarked) [Compound 10, 6-(3-methylthiophen-2-ylmethylamino)-9-(tetrahydrofuran-2-yl)purine] as the compound, how does the maximum effective concentration [2] read?
A: 10^−4 mol · l^−1

Q: What about the “activity (%)” value [2] of the same compound?
A: 110 ± 7%

Q: For `O=C(/C=C/c1ccc(O)c(O)c1)O[C@H](Cc1ccc(O)c(O)c1)C(=O)O` [RA, rosmarinic acid, reference compound], which “Protection (%)” value ([3]; UVA 7.5 J/cm^2, 3.9 μmol/l) is on record?
A: 6.1%

Q: What about the “Protection (%)” value ([3]; UVA 7.5 J/cm^2, 7.8 μmol/l) of the same compound?
A: 14.7%

Q: What about the “Protection (%)” value ([3]; UVA 7.5 J/cm^2, 15.6 μmol/l) of the same compound?
A: 17.0%

Q: And the “Protection (%)” value ([3]; UVA 7.5 J/cm^2, 31.3 μmol/l)?
A: 19.3%

Q: And the “Protection (%)” value ([3]; UVB 150 mJ/cm^2, 3.9 μmol/l)?
A: 36.8%

Q: And the “Protection (%)” value ([3]; UVB 150 mJ/cm^2, 7.8 μmol/l)?
A: 50.9%

Q: And the “Protection (%)” value ([3]; UVB 150 mJ/cm^2, 15.6 μmol/l)?
A: 52.9%

Q: What about the “Protection (%)” value ([3]; UVB 150 mJ/cm^2, 31.3 μmol/l) of the same compound?
A: 67.7%

Q: And the “Protection (%)” value (HaCaT; Table 17: UVA-induced damage (10 J/cm2), 3.9 μmol/l)?
A: 23.6%

Q: And the “Protection (%)” value (HaCaT; Table 17: UVA-induced damage (10 J/cm2), 7.8 μmol/l)?
A: 42.3%

Q: And the “Protection (%)” value (HaCaT; Table 17: UVA-induced damage (10 J/cm2), 15.6 μmol/l)?
A: 36.2%

Q: And the “Protection (%)” value (HaCaT; Table 17: UVA-induced damage (10 J/cm2), 31.3 μmol/l)?
A: 44.0%

Q: And the “Protection (%)” value (HaCaT; Table 18: titled UVA-induced damage, 3.9 μmol/l)?
A: 22%

Q: And the “Protection (%)” value (HaCaT; Table 18: titled UVA-induced damage, 7.8 μmol/l)?
A: 48.5%

Q: What about the “Protection (%)” value (HaCaT; Table 18: titled UVA-induced damage, 15.6 μmol/l) of the same compound?
A: 55.7%

Q: What about the “Protection (%)” value (HaCaT; Table 18: titled UVA-induced damage, 31.3 μmol/l) of the same compound?
A: 54.3%

Q: For `c1coc(CNc2ncnc3nc[nH]c23)c1` [kinetin, 6-furfurylaminopurine, reference compound], which maximum effective concentration [2] is on record?
A: 10^−4 mol · l^−1

Q: What about the “activity (%)” value [2] of the same compound?
A: 98 ± 4%
